In PMC8045554 (Pharmacological research, 2020) one finds Kd data, which are given here for one compound.

Each structure is given as a SMILES string.

In this assay the target is PCSK9 (proprotein convertase subtilisin/kexin type-9) (Homo sapiens, UniProt Q8NBP7). Nature of the assay: SPR with immobilized PCSK9. It is filed as binding.

What is called Kd is a measure of binding affinity in units of concentration.

`CC/C=C\[C@H](O)[C@H](O)C1=C(C)C(=O)[C@]2(O1)C(=O)N[C@@](OC)(C(=O)c1ccccc1)[C@@H]2O` [PS, Pseurotin A] came in with a Kd of 23.4 µM.
